The source of these data is patent US9278996B2, “Dolastatin-10 derivative, method of producing the same and anticancer drug composition containing the same” (CELLTRION, INC., priority 2012, dated 2016).

By IC50 is commonly meant the concentration that gives 50% inhibition.

The assay relates to breast cancer (BT-474). The assay is described as follows: Anticancer activity assay (WST-8 cell growth), BT-474. In kind it is cell-based. As to conditions: Homo sapiens, BT-474, 96 h, read-out: IC50 (nM) BT-474. The protocol: The compounds of the present invention were assayed for inhibitory activity against 7 cancer cell lines as breast cancer (BT-474), human epithelial cancer (A-431), non-small cell lung cancer (NCI-H460), colon cancer (HT-29), colon cancer (SW-620), breast cancer (MDA-MB-231) and breast cancer (MCF-7).
Briefly, a suspension of each cancer cell line was serially diluted, and plated at a density of 2˜3×10^3 cells/well into 96-well microplates, followed by incubation at 37° C. for 4 day in a 5% CO2 atmosphere. Cell growth in a monolayer was measured using WST-8 reagemt (Dojindo, Japan).
IC50 values of the compounds against the cancer cell lines were calculated as compound concentrations at which the cells were grown by 50% OD of the control.
On to `CC[C@H](C)[C@@H]([C@@H](CC(=O)N1C[C@H](OC)C[C@@H]1[C@H](OC)[C@@H](C)C(=O)N[C@H](C)C(=O)c1ccc(F)cc1)OC)N(C)C(=O)[C@@H](NC(=O)[C@@H](NC)C(C)C)C(C)C` [Compound I-11, (S)—N-((3R,4S,5 S)-1-((2R,4R)-2-((1R,2R)-3-(((R)-1-(4-fluorophenyl)-1-oxopropan-2-yl)amino)-1-methoxy-2-methyl-3-oxopropyl)-4-methoxypyrrolidin-1-yl)-3-methoxy-5-methyl-1-oxoheptan-4-yl)-N,3-dimethyl-2-((S)-3-methyl-2-(methylamino)butaneamido)butanamide], for which the IC50 is 0.78 nM. As for `CC[C@H](C)[C@@H]([C@@H](CC(=O)N1C[C@H](OC)C[C@@H]1[C@H](OC)[C@@H](C)C(=O)N[C@H](C)C(=O)c1cccc(OC)c1)OC)N(C)C(=O)[C@@H](NC(=O)[C@@H](NC)C(C)C)C(C)C` [Compound I-14, (S)—N-((3R,4S,5S)-3-methoxy-1-((2R,4R)-4-methoxy-2-((1R,2R)-1-methoxy-3-(((R)-1-(3-methoxyphenyl)-1-oxopropan-2-yl)amino)-2-methyl-3-oxopropyl)pyrrolidin-1-yl)-5-methyl-1-oxoheptan-4-yl)-N,3-dimethyl-2-((S)-3-methyl-2-(methylamino)butaneamido)butanamide], the IC50 turned out to be 0.29 nM. On to `CC[C@H](C)[C@@H]([C@@H](CC(=O)N1C[C@H](OC)C[C@@H]1[C@H](OC)[C@@H](C)C(=O)N[C@H](C)C(=O)c1ccc(OC)cc1)OC)N(C)C(=O)[C@@H](NC(=O)[C@@H](NC)C(C)C)C(C)C` [Compound I-15, (S)—N-((3R,4S,5S)-3-methoxy-1-((2R,4R)-4-methoxy-2-((1R,2R)-1-methoxy-3-(((R)-1-(4-methoxyphenyl)-1-oxopropan-2-yl)amino)-2-methyl-3-oxopropyl)pyrrolidin-1-yl)-5-methyl-1-oxoheptan-4-yl)-N,3-dimethyl-2-((S)-3-methyl-2-(methylamino)butaneamido)butanamide], for which the concentration for half-maximal inhibition (IC50) turned out to be 0.51 nM. To `CC[C@H](C)[C@@H]([C@@H](CC(=O)N1C[C@H](OC)C[C@@H]1[C@H](OC)[C@@H](C)C(=O)N[C@@H](C)C(=O)c1cc(F)cc(F)c1)OC)N(C)C(=O)[C@@H](NC(=O)[C@@H](NC)C(C)C)C(C)C` [Compound I-16, (S)—N-((3R,4S,5S)-1-((2R,4R)-2-((1R,2R)-3-(((S)-1-(3,5-difluorophenyl)-1-oxopropan-2-yl)amino)-1-methoxy-2-methyl-3-oxopropyl)-4-methoxypyrrolidin-1-yl)-3-methoxy-5-methyl-1-oxoheptan-4-yl)-N,3-dimethyl-2-((S)-3-methyl-2-(methylamino)butaneamido)butanamide] belongs 0.65 nM; to `CC[C@H](C)[C@@H]([C@@H](CC(=O)N1C[C@H](OC)C[C@@H]1[C@H](OC)[C@@H](C)C(=O)N[C@@H](C)C(=O)c1c(F)cccc1F)OC)N(C)C(=O)[C@@H](NC(=O)[C@@H](NC)C(C)C)C(C)C` [Compound I-17, (S)—N-((3R,4S,5S)-1-((2R,4R)-2-((1R,2R)-3-(((S)-1-(2,6-difluorophenyl)-1-oxopropan-2-yl)amino)-1-methoxy-2-methyl-3-oxopropyl)-4-methoxypyrrolidin-1-yl)-3-methoxy-5-methyl-1-oxoheptan-4-yl)-N,3-dimethyl-2-((S)-3-methyl-2-(methylamino)butaneamido)butanamide], 0.25 nM; to `CC[C@H](C)[C@@H]([C@@H](CC(=O)N1C[C@H](OC)C[C@@H]1[C@H](OC)[C@@H](C)C(=O)N[C@H](C)C(=O)c1c(F)cccc1F)OC)N(C)C(=O)[C@@H](NC(=O)[C@@H](NC)C(C)C)C(C)C` [Compound I-18, (S)—N-((3R,4S,5S)-1-((2R,4R)-2-((1R,2R)-3-(((R)-1-(2,6-difluorophenyl)-1-oxopropan-2-yl)amino)-1-methoxy-2-methyl-3-oxopropyl)-4-methoxypyrrolidin-1-yl)-3-methoxy-5-methyl-1-oxoheptan-4-yl)-N,3-dimethyl-2-((S)-3-methyl-2-(methylamino)butaneamido)butanamide], 0.88 nM. Next, `CC[C@H](C)[C@@H]([C@@H](CC(=O)N1C[C@H](OC)C[C@@H]1[C@H](OC)[C@@H](C)C(=O)N[C@H](C)/C(=N\O)c1cccc(OC)c1)OC)N(C)C(=O)[C@@H](NC(=O)[C@@H](NC)C(C)C)C(C)C` [Compound I-19, (S)—N-((3R,4S,5 S)-1-((2R,4R)-2-((1R,2R)-3-(((R,Z)-1-(hydroxyimino)-1-(3-methoxyphenyl)propan-2-yl)amino)-1-methoxy-2-methyl-3-oxopropyl)-4-methoxypyrrolidin-1-yl)-3-methoxy-5-methyl-1-oxoheptan-4-yl)-N,3-dimethyl-2-((S)-3-methyl-2-(methylamino)butaneamido)butanamide]: 0.09 nM; `CC[C@H](C)[C@@H]([C@@H](CC(=O)N1C[C@H](OC)C[C@@H]1[C@H](OC)[C@@H](C)C(=O)N[C@H](C)C(=NO)c1cccc(OC)c1)OC)N(C)C(=O)[C@@H](NC(=O)[C@H](C(C)C)N(C)C)C(C)C` [Compound I-20, (S)-2-((S)-2-(dimethylamino)-3-methylbutaneamido)-N-((3R,4S,5S)-1-((2R,4R)-2-((1R,2R)-3-(((R)-1-(hydroxyimino)-1-(3-methoxyphenyl)propan-2-yl)amino)-1-methoxy-2-methyl-3-oxopropyl)-4-methoxypyrrolidin-1-yl)-3-methoxy-5-methyl-1-oxoheptan-4-yl)-N,3-dimethylbutanamide]: 0.47 nM; `CC[C@H](C)[C@@H]([C@@H](CC(=O)N1C[C@H](OC)C[C@@H]1[C@H](OC)[C@@H](C)C(=O)N[C@H](C)C(=NO)c1ccc(F)cc1)OC)N(C)C(=O)[C@@H](NC(=O)[C@H](C(C)C)N(C)C)C(C)C` [Compound I-21, (S)-2-((S)-2-(dimethylamino)-3-methylbutaneamido)-N-((3R,4S,5S)-1-((2R,4R)-2-((1R,2R)-3-(((R)-1-(4-fluorophenyl)-1-(hydroxyimino)propan-2-yl)amino)-1-methoxy-2-methyl-3-oxopropyl)-4-methoxypyrrolidin-1-yl)-3-methoxy-5-methyl-1-oxoheptan-4-yl)-N,3-dimethylbutanamide]: 0.59 nM. As for `CC[C@H](C)[C@@H]([C@@H](CC(=O)N1C[C@H](OC)C[C@@H]1[C@H](OC)[C@@H](C)C(=O)NCC(=NO)c1cc(Br)ccc1C)OC)N(C)C(=O)[C@@H](NC(=O)[C@H](C(C)C)N(C)C)C(C)C` [Compound I-22, (S)—N-((3R,4S,5S)-1-((2R,4R)-2-((1R,2R)-3-((2-(5-bromo-2-methylphenyl)-2-(hydroxyimino)ethyl)amino)-1-methoxy-2-methyl-3-oxopropyl)-4-methoxypyrrolidin-1-yl)-3-methoxy-5-methyl-1-oxoheptan-4-yl)-2-((S)-2-(dimethylamino)-3-methylbutaneamido)-N,3-dimethylbutanamide], the 50% inhibitory concentration (IC50) stood at 0.91 nM.

`CC[C@H](C)[C@@H]([C@@H](CC(=O)N1C[C@H](OC)C[C@H]1[C@H](OC)[C@@H](C)C(=O)NC/C(=N/O)c1ccc(OC)cc1F)OC)N(C)C(=O)[C@@H](NC(=O)[C@@H](NC)C(C)C)C(C)C` [Compound I-25]: the half-inhibitory concentration (IC50) is 0.41 nM. Next, `CC[C@H](C)[C@@H]([C@@H](CC(=O)N1C[C@H](OC)CC1[C@H](OC)[C@@H](C)C(=O)NCC(=O)c1ccc(F)cc1C)OC)N(C)C(=O)[C@@H](NC(=O)[C@H](C(C)C)N(C)C)C(C)C` (stereo partly drawn) [Compound I-26]: 0.79 nM.
